Results as given in patent US9700057B2, “Bradyrhizobium strains” (NOVOZYMES BIOAG A/S, priority 2011, dated 2017).

System: parental strain USDA 532C
Assay: Kill rate of USDA 532C using the mutagen ethyl methanesulfonate (EMS)
Assay type: cell-based, Bradyrhizobia japonicum
Procedure: The following experiment(s) were performed to determine the application rate of the mutagen, ethyl methanosulfonate (EMS) that would give a 99.9-99.99 percent kill rate for parental strain USDA 532C. This rate determination will become part of the mutagenesis protocol used to generate desiccation-resistant putative mutants although the method of mutagenesis may evolve for efficiency.
Parental strain USDA 532C was grown in six 10 ml YEM disposable culture tubes for two days and 5 ml of the culture was inoculated into four 250 ml flasks containing 50 ml YEM medium. The flasks were incubated for two days at 30° C. shaker. The culture from the flasks were subsequently centrifuged in 50 ml disposable sterile tubes at 8,000 rpm for ten minutes in a Sorvall RC 6 Plus® centrifuge and combined into one tube. The pellet was re-suspended in 4 ml of fresh YEM medium and separated into four 1.5 ml microcentrifuge tubes. The tubes would each represent different application rates used for the mutagenesis process.
Once the culture have been aliquoted into separate tubes and the mutagen EMS (Sigma, C3H8O3S, FW 124.16, #M0880-1G) added to each tube, the tubes were vortexed vigorously and placed in an empty 250 ml flask. The flask containing the reaction tubes were incubated for 30 minutes at 30° C. in a shaker. Immediately following the incubation period, the tubes were washed five times with 0.16M sodium thiosulfate (STS, Fisher Chemical, Na2S2O3*5H2O, FW 248.18, #S445-3)) solution to inactivate the mutagen. After washing, the cells in the reaction tubes were sheared with 21 gauge syringe needle (BD 1 ml 21G1 Latex Free Syringe PrecisionGlide® Needle, 0.8 mm×25 mm, #309624) and dilutions were completed and plated on YEMA plates. The cell counts were available after five days incubation at 30° C. and the percent kill of the EMS application rate was calculated. To calculate the percent kill rate for each application rate, the following equation was used: ([cell count 0 μl EMS (control)−(cell count of μl EMS (treatment))÷cell count 0 μl EMS (control)]×100%). All other experiments following this experiment used this equation to calculate the percent kill rate.

[1] = Table 12, 25 μl EMS, decreased washing
[2] = Table 14 (repeat of Table 13), 40 μl EMS
[3] = Table 14 (repeat of Table 13), 45 μl EMS
[4] = Table 15 (repeat of Table 14), 45 μl EMS
[5] = Table 15 (repeat of Table 14), 50 μl EMS

Structure (SMILES): CCOS(C)(=O)=O [EMS, ethyl methanesulfonate]
- Cell counts (approximate cfu/ml) (Table 10, 10 μl EMS, 30 minutes at 30° C.): no difference
- Cell counts (approximate cfu/ml) (Table 11, 15 μl EMS): 2.24 × 10^9 cfu/ml
- Percent kill rate (Table 11, 15 μl EMS): 10.17%
- Cell counts (approximate cfu/ml) (Table 11, 25 μl EMS): 1.72 × 10^9 cfu/ml
- Percent kill rate (Table 11, 25 μl EMS): 30.92%
- Cell counts (approximate cfu/ml) (Table 11, 50 μl EMS): 1.67 × 10^1 cfu/ml
- Cell counts (approximate cfu/ml) [1]: 1.27 × 10^9 cfu/ml
- Percent kill rate [1]: 73.09%
- Cell counts (approximate cfu/ml) (Table 12, 35 μl EMS): 5.37 × 10^8 cfu/ml
- Percent kill rate (Table 12, 35 μl EMS): 88.58%
- Cell counts (approximate cfu/ml) (Table 12, 50 μl EMS): 2.93 × 10^2 cfu/ml
- Percent kill rate (Table 12, 50 μl EMS): 100%
- Cell counts (approximate cfu/ml) (Table 13, 40 μl EMS): 6.97 × 10^8 cfu/ml
- Percent kill rate (Table 13, 40 μl EMS): 82.26%
- Cell counts (approximate cfu/ml) (Table 13, 45 μl EMS): 8.57 × 10^7 cfu/ml
- Percent kill rate (Table 13, 45 μl EMS): 97.82%
- Cell counts (approximate cfu/ml) (Table 13, 50 μl EMS): 2.65 × 10^5 cfu/ml
- Percent kill rate (Table 13, 50 μl EMS): 99.99%
- Cell counts (approximate cfu/ml) [2]: 1.35 × 10^9 cfu/ml
- Percent kill rate [2]: 99.81%
- Cell counts (approximate cfu/ml) [3]: 5.27 × 10^8 cfu/ml
- Percent kill rate [3]: 99.93%
- Cell counts (approximate cfu/ml) (Table 14 (repeat of Table 13), 50 μl EMS): 2.19 × 10^6 cfu/ml
- Cell counts (approximate cfu/ml) [4]: 3.33 × 10^4 cfu/ml
- Percent kill rate [4]: 99.98%
- Cell counts (approximate cfu/ml) [5]: 4.33 × 10^1 cfu/ml
- Percent kill rate [5]: 100%
